Assays:
[1] = system: patients with excessive daytime sleepiness associated with narcolepsy; conditions: clinical trials, 200 mg/d and 400 mg/d; cited from earlier work
sleep-deprived pilots = conditions: in vivo; cited from earlier work
[2] = system: patients scheduled for same day surgery under general anesthesia; assay: Randomized, double blind, parallel group clinical study of modafinil vs placebo on recovery after general anesthesia (symptom evaluation by verbal analog scale); type: in vivo; conditions: for Appetite, verbal analog score, mean (SD) / Ease of sleep, verbal analog score, mean (SD) / Energy, verbal analog score, mean (SD) / Exhaustion, verbal analog score, mean (SD) / Fatigue, verbal analog score, mean (SD) / Nausea, verbal analog score, mean (SD) / Reading ability, verbal analog score, mean (SD) / Restless, verbal analog score, mean (SD) / Tense, verbal analog score, mean (SD) / Worn out, verbal analog score, mean (SD): VAS 0 to 10; for Operative distress, point value: total of 60 possible points
From the text: Informed consents were obtained from patients scheduled to undergo outpatient surgical procedures under general anesthesia to participate in this prospective study approved by an institutional review board. In this study, the clinical activity of modafinil to improve recovery post-anesthesia was examined in a randomized, double blind, parallel group study. Thirty-four (34) patients scheduled for same day surgery under general anesthesia participated in this prospective study. Patients were American Society of Anesthesiology physical status I-II, with a Body-Mass-Index <40 without any known significant renal, hepatic, cardiovascular, neurological, gastrointestinal, endocrine, hematologic, or pulmonary diseases as judged by the investigator. A history of epilepsy, alcoholism, or chronic use of opioids also excluded the patients from participation in this study. Patients were asked to rate various symptoms they had experienced over the previous 24-hour period using a verbal analog scale (VAS) rating of 0 to 10, as well as discrete scores when indicated. The symptom evaluation included headache, dizziness, level of energy, appetite, nausea, pain, vomiting, degree of being tense, clear-headedness, restlessness, fatigue, exhaustion, quality of sleep during the previous night, need for the help from a caregiver, the ability to read, comprehend, and communicate.
Anesthetic management of the patients was at the discretion of the attending anesthesiologist. Patients were monitored post-operatively, and cared for according to institutional standards. Once the patient was able to tolerate oral intake of liquids, the study drug (modafinil, 200 mg) or placebo was administered, randomly, with a sip of water. Patients were discharged according to institutional standards. Patients were contacted 24 (+1) hours after dosing for symptom evaluation and the same questions were asked. Patients were also asked whether the study drug they received had any beneficial effect. If the patient felt they received a benefit from the study drug they were asked to describe the benefit in their own words.
The study group included 24 female and 10 male patients (n=17 per group). The demographics of the groups are shown below in Table 1. There were no significant differences in age, height, weight, or gender distribution between the two groups.
Almost all patients had received the same type of anesthetic management including propofol, a narcotic, a volatile agent, a muscle relaxant, nitrous oxide, and oxygen. Patients had undergone mostly orthopedic or gynecological surgical procedures. Surgical procedures or the exact doses of anesthetics were not compared between the groups.
There were no significant differences in preoperative symptoms reported between the two groups (modafinil versus placebo; Table 2). As expected, patients were tenser, more restless, and less relaxed pre-operatively (in both groups). […] Operative distress was defined as a lack of energy, presence of feeling worn out, fatigue, exhaustion, mental clouding, and problem reading (comprehending) (total of 60 possible points to define the most severe Operative distress). In the modafinil group, the point value for operative distress was 10.5±6.0, preoperatively, increasing to 11.3±9.1, postoperatively. The corresponding values for operative distress in the placebo group were 13.4±11.9, pre-operatively, and 21.0±13.8, post-operatively.

[3] = post-operative minus pre-operative, modafinil 200 mg
[4] = post-operative, 24 h after modafinil 200 mg oral, n = 17
[5] = pre-operative (before dosing), n = 17
[6] = share of patients, modafinil 200 mg, n = 17

NC(=O)C[S+]([O-])C(c1ccccc1)c1ccccc1 (stereo not drawn) [Modafinil]
Daytime wakefulness [1]: significantly improve daytime wakefulness
Effect on nighttime sleep [1]: without affecting nighttime sleep
Fatigue and confusion in sleep-deprived pilots (sleep-deprived pilots): reduce fatigue and confusion
Patients expressing themes of "alertness" and "energy" as benefit of study drug ([2]; content analysis of comments, modafinil group, p<0.05 vs 18% placebo): 71%
Exhaustion postoperatively compared with placebo ([2]; modafinil 200 mg vs placebo): significantly less exhausted
Fatigue postoperatively compared with placebo ([2]; modafinil 200 mg vs placebo): significantly less fatigue
Feeling worn out postoperatively compared with placebo ([2]; modafinil 200 mg vs placebo): significantly less worn out
Feelings of alertness and energy in patients recovering from general anesthesia ([2]; modafinil 200 mg vs placebo): significantly improved feelings of alertness, and energy
Post-operative distress compared with placebo ([2]; modafinil 200 mg vs placebo): significantly less post-operative distress
Patients complaining of not being able to fall asleep at night ([2]; modafinil group (n = 17), four in placebo group): one
Patients complaining of moderate-to-severe fatigue ([2]; modafinil treatment group vs 65% placebo): 12%
Appetite, verbal analog score, difference [2, 3]: −1.8
Ease of sleep, verbal analog score, difference [2, 3]: −0.3
Energy, verbal analog score, difference [2, 3]: −1.3
Exhaustion, verbal analog score, difference [2, 3]: 0.2
Fatigue, verbal analog score, difference [2, 3]: −0.2
Nausea, verbal analog score, difference [2, 3]: 1.3
Reading ability, verbal analog score, difference [2, 3]: 0.2
Restless, verbal analog score, difference [2, 3]: −2.0
Tense, verbal analog score, difference [2, 3]: −3.2
Worn out, verbal analog score, difference [2, 3]: −0.6
Appetite, verbal analog score, mean (SD) [2, 4]: 6.1 (3.8)
Ease of sleep, verbal analog score, mean (SD) [2, 4]: 6.2 (3.6)
Energy, verbal analog score, mean (SD) [2, 4]: 6.2 (3.5)
Exhaustion, verbal analog score, mean (SD) [2, 4]: 2.4 (3.1)
Fatigue, verbal analog score, mean (SD) [2, 4]: 1.4 (1.8)
Nausea, verbal analog score, mean (SD) [2, 4]: 1.9 (3.5)
Reading ability, verbal analog score, mean (SD) [2, 4]: 9.2 (1.6)
Restless, verbal analog score, mean (SD) [2, 4]: 2.5 (3.0)
Tense, verbal analog score, mean (SD) [2, 4]: 2.2 (3.2)
Worn out, verbal analog score, mean (SD) [2, 4]: 2.9 (2.4)
Mental limitation to resume activity, verbal analog score, mean (SD) [2, 4]: 0.6 (1.6)
Operative distress, point value ([2]; postoperatively, modafinil 200 mg): 11.3±9.1
Appetite, verbal analog score, mean (SD) [2, 5]: 7.9 (2.9)
Ease of sleep, verbal analog score, mean (SD) [2, 5]: 6.5 (3.3)
Energy, verbal analog score, mean (SD) [2, 5]: 7.5 (2.8)
Exhaustion, verbal analog score, mean (SD) [2, 5]: 2.2 (3.3)
Fatigue, verbal analog score, mean (SD) [2, 5]: 1.6 (2.7)
Nausea, verbal analog score, mean (SD) [2, 5]: 0.6 (2.4)
Reading ability, verbal analog score, mean (SD) [2, 5]: 9.0 (2.1)
Restless, verbal analog score, mean (SD) [2, 5]: 4.5 (3.7)
Tense, verbal analog score, mean (SD) [2, 5]: 5.4 (3.6)
Worn out, verbal analog score, mean (SD) [2, 5]: 3.5 (3.4)
Operative distress, point value ([2]; preoperatively, modafinil group): 10.5±6.0
Fatigue, % with rating > 3 [2, 6]: 18%
Fatigue, % with rating ≧ 5 [2, 6]: 12%
Worn out, % with rating > 3 [2, 6]: 41%
Worn out, % with rating ≧ 5 [2, 6]: 29%
